PubChem BioAssay (NCI)
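Five concentrations, 48 hours, 96-well plates. TGI marks complete inhibition of growth.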

Tests used:
Assay in all cases: NCI-60 cell line screen, 48 h
KM12 colon = system: KM12 colon
DU-145 prostate = system: DU-145 prostate
HL-60(TB) leukemia = system: HL-60(TB) leukemia
SF-295 CNS = system: SF-295 CNS
IGROV1 ovarian = system: IGROV1 ovarian
MCF7 breast = system: MCF7 breast
SF-539 CNS = system: SF-539 CNS
U251 CNS = system: U251 CNS
PC-3 prostate = system: PC-3 prostate
HCT-116 colon = system: HCT-116 colon
UO-31 renal = system: UO-31 renal
SF-268 CNS = system: SF-268 CNS
HS 578T breast = system: HS 578T breast
MDA-MB-435 = system: MDA-MB-435
MALME-3M melanoma = system: MALME-3M melanoma
TK-10 renal = system: TK-10 renal
NCI-H23 lung = system: NCI-H23 lung
MDA-MB-231 breast = system: MDA-MB-231 breast
A549 NSCLC = system: A549 NSCLC
LOX IMVI melanoma = system: LOX IMVI melanoma

**Q.** Which TGI (KM12 colon) does the source give for COc1cc2cc(C(=O)N3CC(CCl)c4ccc([N+](=O)[O-])cc43)[nH]c2c(OC)c1OC (stereo not given) here?
**A.** > 100 µM

**Q.** What about the TGI (DU-145 prostate) of the same compound?
**A.** > 100 µM

**Q.** And the TGI (HL-60(TB) leukemia)?
**A.** > 100 µM

**Q.** And the TGI (SF-295 CNS)?
**A.** > 100 µM

**Q.** And the TGI (IGROV1 ovarian)?
**A.** > 100 µM

**Q.** What about the TGI (MCF7 breast) of the same compound?
**A.** > 100 µM

**Q.** And the TGI (SF-539 CNS)?
**A.** > 100 µM

**Q.** And the TGI (U251 CNS)?
**A.** > 100 µM

**Q.** What about the TGI (PC-3 prostate) of the same compound?
**A.** > 100 µM

**Q.** What about the TGI (HCT-116 colon) of the same compound?
**A.** > 100 µM

**Q.** What about the TGI (UO-31 renal) of the same compound?
**A.** > 100 µM

**Q.** What about the TGI (SF-268 CNS) of the same compound?
**A.** > 100 µM

**Q.** What about the TGI (HS 578T breast) of the same compound?
**A.** > 100 µM

**Q.** What about the TGI (MDA-MB-435) of the same compound?
**A.** > 100 µM

**Q.** What about the TGI (MALME-3M melanoma) of the same compound?
**A.** > 100 µM

**Q.** What about the TGI (TK-10 renal) of the same compound?
**A.** > 100 µM

**Q.** What about the TGI (NCI-H23 lung) of the same compound?
**A.** > 100 µM

**Q.** And the TGI (MDA-MB-231 breast)?
**A.** > 100 µM

**Q.** What about the TGI (A549 NSCLC) of the same compound?
**A.** > 100 µM

**Q.** And the TGI (LOX IMVI melanoma)?
**A.** > 100 µM

**Q.** Which results are given for Cc1cc2nc(C=C(C(F)(F)F)C(F)(F)F)sc2cc1C?
**A.** TGI (KM12 colon): 4.41 µM; TGI (DU-145 prostate): 10.2 µM; TGI (HL-60(TB) leukemia): 3.86 µM; TGI (SF-295 CNS): 13.4 µM; TGI (IGROV1 ovarian): 7.78 µM; TGI (MCF7 breast): 12.5 µM; TGI (SF-539 CNS): 4.31 µM; TGI (U251 CNS): 4.21 µM; TGI (PC-3 prostate): 4.98 µM; TGI (HCT-116 colon): 2.93 µM; TGI (UO-31 renal): 7.17 µM; TGI (SF-268 CNS): 11.3 µM; TGI (HS 578T breast): 9.69 µM; TGI (MDA-MB-435): 7.07 µM; TGI (MALME-3M melanoma): 4.56 µM; TGI (TK-10 renal): 5.91 µM; TGI (NCI-H23 lung): 3.5 µM; TGI (MDA-MB-231 breast): 23.9 µM; TGI (A549 NSCLC): 26.7 µM; TGI (LOX IMVI melanoma): 4.99 µM

**Q.** With CC(NCc1c(O)ccc2ccc(=O)oc12)C(=O)O (stereo not given) as the compound, how does the TGI (KM12 colon) read?
**A.** > 100 µM

**Q.** What about the TGI (DU-145 prostate) of the same compound?
**A.** > 100 µM

**Q.** And the TGI (HL-60(TB) leukemia)?
**A.** > 100 µM

**Q.** What about the TGI (SF-295 CNS) of the same compound?
**A.** > 100 µM

**Q.** And the TGI (IGROV1 ovarian)?
**A.** > 100 µM

**Q.** And the TGI (MCF7 breast)?
**A.** > 100 µM

**Q.** And the TGI (SF-539 CNS)?
**A.** > 100 µM

**Q.** And the TGI (U251 CNS)?
**A.** > 100 µM

**Q.** What about the TGI (PC-3 prostate) of the same compound?
**A.** > 100 µM

**Q.** What about the TGI (HCT-116 colon) of the same compound?
**A.** > 100 µM

**Q.** And the TGI (UO-31 renal)?
**A.** > 100 µM

**Q.** And the TGI (SF-268 CNS)?
**A.** > 100 µM

**Q.** What about the TGI (HS 578T breast) of the same compound?
**A.** > 100 µM

**Q.** And the TGI (MDA-MB-435)?
**A.** > 100 µM

**Q.** What about the TGI (MALME-3M melanoma) of the same compound?
**A.** > 100 µM

**Q.** And the TGI (TK-10 renal)?
**A.** > 100 µM

**Q.** What about the TGI (NCI-H23 lung) of the same compound?
**A.** > 100 µM

**Q.** And the TGI (MDA-MB-231 breast)?
**A.** > 100 µM

**Q.** What about the TGI (A549 NSCLC) of the same compound?
**A.** > 100 µM

**Q.** What about the TGI (LOX IMVI melanoma) of the same compound?
**A.** > 100 µM

**Q.** O=C1CSC(c2ccccc2)N1c1ccc(-n2c(-c3ccccc3)nc3ccccc3c2=O)cc1 (stereo not given) was tested. Which TGI (KM12 colon) did it give?
**A.** > 100 µM

**Q.** And the TGI (DU-145 prostate)?
**A.** > 100 µM

**Q.** And the TGI (HL-60(TB) leukemia)?
**A.** > 100 µM

**Q.** What about the TGI (SF-295 CNS) of the same compound?
**A.** > 100 µM

**Q.** And the TGI (IGROV1 ovarian)?
**A.** > 100 µM

**Q.** What about the TGI (MCF7 breast) of the same compound?
**A.** > 100 µM

**Q.** And the TGI (SF-539 CNS)?
**A.** > 100 µM

**Q.** And the TGI (U251 CNS)?
**A.** > 100 µM

**Q.** And the TGI (PC-3 prostate)?
**A.** > 100 µM

**Q.** What about the TGI (HCT-116 colon) of the same compound?
**A.** > 100 µM

**Q.** What about the TGI (UO-31 renal) of the same compound?
**A.** > 100 µM

**Q.** What about the TGI (SF-268 CNS) of the same compound?
**A.** > 100 µM

**Q.** What about the TGI (HS 578T breast) of the same compound?
**A.** > 100 µM

**Q.** And the TGI (MDA-MB-435)?
**A.** > 100 µM

**Q.** And the TGI (MALME-3M melanoma)?
**A.** > 100 µM

**Q.** What about the TGI (TK-10 renal) of the same compound?
**A.** > 100 µM

**Q.** And the TGI (NCI-H23 lung)?
**A.** > 100 µM

**Q.** What about the TGI (MDA-MB-231 breast) of the same compound?
**A.** > 100 µM

**Q.** What about the TGI (A549 NSCLC) of the same compound?
**A.** > 100 µM

**Q.** What about the TGI (LOX IMVI melanoma) of the same compound?
**A.** > 100 µM

**Q.** What does the source list for O=C1OC(C2Cc3ccc4c(c3C2=O)CCC4)c2ccccc21 (stereo not given)?
**A.** TGI (KM12 colon): > 100 µM; TGI (DU-145 prostate): > 100 µM; TGI (HL-60(TB) leukemia): 83.1 µM; TGI (SF-295 CNS): > 100 µM; TGI (IGROV1 ovarian): > 100 µM; TGI (MCF7 breast): > 100 µM; TGI (SF-539 CNS): > 100 µM; TGI (U251 CNS): > 100 µM; TGI (PC-3 prostate): > 100 µM; TGI (HCT-116 colon): > 100 µM; TGI (UO-31 renal): > 100 µM; TGI (SF-268 CNS): > 100 µM; TGI (HS 578T breast): > 100 µM; TGI (MDA-MB-435): > 100 µM; TGI (MALME-3M melanoma): > 100 µM; TGI (TK-10 renal): > 100 µM; TGI (NCI-H23 lung): > 100 µM; TGI (MDA-MB-231 breast): > 100 µM; TGI (A549 NSCLC): > 100 µM; TGI (LOX IMVI melanoma): > 100 µM

**Q.** With C=CCC1(Sc2ccccn2)Sc2ccc3ccccc3c2-c2c(ccc3ccccc23)S1 as the compound, how does the TGI (KM12 colon) read?
**A.** > 100 µM

**Q.** And the TGI (DU-145 prostate)?
**A.** > 100 µM

**Q.** What about the TGI (HL-60(TB) leukemia) of the same compound?
**A.** > 100 µM

**Q.** And the TGI (SF-295 CNS)?
**A.** > 100 µM

**Q.** And the TGI (IGROV1 ovarian)?
**A.** > 100 µM

**Q.** What about the TGI (MCF7 breast) of the same compound?
**A.** > 100 µM

**Q.** And the TGI (SF-539 CNS)?
**A.** > 100 µM

**Q.** What about the TGI (U251 CNS) of the same compound?
**A.** > 100 µM

**Q.** What about the TGI (PC-3 prostate) of the same compound?
**A.** > 100 µM

**Q.** And the TGI (HCT-116 colon)?
**A.** > 100 µM

**Q.** What about the TGI (UO-31 renal) of the same compound?
**A.** > 100 µM

**Q.** What about the TGI (SF-268 CNS) of the same compound?
**A.** > 100 µM

**Q.** What about the TGI (HS 578T breast) of the same compound?
**A.** > 100 µM

**Q.** What about the TGI (MDA-MB-435) of the same compound?
**A.** > 100 µM

**Q.** What about the TGI (MALME-3M melanoma) of the same compound?
**A.** > 100 µM

**Q.** What about the TGI (TK-10 renal) of the same compound?
**A.** > 100 µM

**Q.** What about the TGI (NCI-H23 lung) of the same compound?
**A.** > 100 µM

**Q.** And the TGI (MDA-MB-231 breast)?
**A.** > 100 µM

**Q.** And the TGI (A549 NSCLC)?
**A.** > 100 µM

**Q.** What about the TGI (LOX IMVI melanoma) of the same compound?
**A.** > 100 µM
